According to the NIST ThermoML archive (doi:10.1016/j.fluid.2010.07.026):
Where “and” joins values, the source holds several entries; their conditions need not be identical. Equal values may be shown once.

How the values were obtained:
[1] = Capillary rise
[2] = wn = mass fraction of the nth substance listed; conditions: Capillary rise

COC [dimethyl ether]
[1]
Conditions | surface tension liquid-gas [mN/m]
278.16 K | 14.7
283.21 K | 13.9
288.17 K | 13.1
293.15 K | 12.6
298.1 K | 11.8
303.13 K | 11

COC [dimethyl ether] + CCC
[2]
Conditions | surface tension liquid-gas
243.4 K, w1 = 0.4975 | 16 mN/m
243.46 K, w1 = 0.6949 | 17.3 mN/m and 17.2 mN/m
243.56 K, w1 = 0.3007 | 15.2 mN/m
248.19 K, w1 = 0.4975 | 15.4 mN/m
248.27 K, w1 = 0.3007 | 14.5 mN/m
248.43 K, w1 = 0.6949 | 16.7 mN/m and 16.6 mN/m
253.08 K, w1 = 0.3007 | 13.9 mN/m
253.09 K, w1 = 0.4975 | 14.7 mN/m
253.23 K, w1 = 0.6949 | 15.9 mN/m and 15.8 mN/m
258.34 K, w1 = 0.6949 | 15.2 mN/m
258.38 K, w1 = 0.4975 | 13.9 mN/m and 14 mN/m
258.42 K, w1 = 0.3007 | 13.1 mN/m
263.11 K, w1 = 0.4975 | 13.4 mN/m
263.16 K, w1 = 0.6949 | 14.4 mN/m
263.33 K, w1 = 0.3007 | 12.4 mN/m
268.05 K, w1 = 0.3007 | 11.8 mN/m
268.16 K, w1 = 0.4975 | 12.7 mN/m
268.16 K, w1 = 0.6949 | 13.7 mN/m
273.14 K, w1 = 0.3007 | 11.1 mN/m
273.15 K, w1 = 0.6949 | 12.9 mN/m
273.16 K, w1 = 0.4975 | 11.9 mN/m and 12 mN/m
278.13 K, w1 = 0.3007 | 10.5 mN/m
278.15 K, w1 = 0.4975 | 11.3 mN/m
278.16 K, w1 = 0.6949 | 12.3 mN/m
283.13 K, w1 = 0.3007 | 9.8 mN/m
283.16 K, w1 = 0.4975 | 10.6 mN/m
283.16 K, w1 = 0.6949 | 11.6 mN/m
288.12 K, w1 = 0.3007 | 9.1 mN/m
288.15 K, w1 = 0.4975 | 10 mN/m
288.15 K, w1 = 0.6949 | 11 mN/m and 11.1 mN/m
293.11 K, w1 = 0.3007 | 8.4 mN/m and 8.5 mN/m
293.13 K, w1 = 0.4975 | 9.3 mN/m
293.17 K, w1 = 0.6949 | 10.4 mN/m
298.08 K, w1 = 0.3007 | 7.8 mN/m and 7.9 mN/m
298.09 K, w1 = 0.4975 | 8.7 mN/m
298.1 K, w1 = 0.6949 | 9.6 mN/m
303.12 K, w1 = 0.4975 | 8 mN/m
303.15 K, w1 = 0.3007 | 7 mN/m and 7.1 mN/m
303.17 K, w1 = 0.6949 | 9.1 mN/m
308.08 K, w1 = 0.4975 | 7.4 mN/m
308.11 K, w1 = 0.3007 | 6.5 mN/m
308.11 K, w1 = 0.6949 | 8.5 mN/m and 8.4 mN/m
313.17 K, w1 = 0.3007 | 5.9 mN/m
313.17 K, w1 = 0.4975 | 6.6 mN/m and 6.7 mN/m
313.18 K, w1 = 0.6949 | 7.7 mN/m
318.13 K, w1 = 0.3007 | 5.3 mN/m
318.13 K, w1 = 0.4975 | 6.1 mN/m
318.16 K, w1 = 0.6949 | 7.1 mN/m
323.17 K, w1 = 0.3007 | 4.8 mN/m
323.17 K, w1 = 0.4975 | 5.5 mN/m
323.17 K, w1 = 0.6949 | 6.5 mN/m and 6.4 mN/m
328.12 K, w1 = 0.3007 | 4.2 mN/m
328.13 K, w1 = 0.4975 | 4.9 mN/m and 5 mN/m
328.14 K, w1 = 0.6949 | 5.9 mN/m and 5.8 mN/m
333.12 K, w1 = 0.3007 | 3.7 mN/m
333.13 K, w1 = 0.6949 | 5.3 mN/m and 5.2 mN/m
333.14 K, w1 = 0.4975 | 4.3 mN/m

CCC [propane]
[1]
Conditions | surface tension liquid-gas [mN/m]
278.18 K | 9.5
283.18 K | 8.9
288.19 K | 8.3
293.18 K | 7.7
298.1 K | 7.1
303.18 K | 6.4
